Earlier results, collected in article PMC6683083, “Lupin Peptide T9 (GQEQSHQDEGVIVR) Modulates the Mutant PCSK9^D374Y Pathway: in vitro Characterization of its Dual Hypocholesterolemic Behavior” (Nutrients, 2019).
Where two headings read alike, the source gives them in different places.

Tests used:
PCSK9 = conditions: cited from earlier work
From the text: It is important to observe that some natural PCSK9 mutations affect its affinity for the LDLR. In particular, the gain of function (GOF) mutant D374Y binds more avidly to the LDLR than the wild-type (WT) PCSK9. The consequence is an approximately tenfold increased capacity of reducing the LDLR protein level. Accordingly, subjects with this PCSK9^D374Y mutation have very high LDL-C levels and are at high risk of atherosclerosis. In light of these observations, PCSK9 is currently considered a new target for the treatment of hypercholesterolemia, and the development of novel PCSK9 inhibitor ... || In this panorama, lupin protein hydrolysates, obtained by treating the proteins with pepsin and trypsin, show synergistic hypocholesterolemic effects through the modulation of both HMGCoAR and PCSK9 targets. […] Furthermore, these lupin hydrolysates impair the protein–protein interaction (PPI) betwe ... || Taking into account all this information, it is possible to affirm that there is an interesting similarity between the hypocholesterolemic behaviors of T9 and P5.

HMGCoAR = biological target: T1, HMGCoAR (Homo sapiens, UniProt P04035); set-up: method as in 4 sources, ref [16],[18] = [16]; doi:10.1016/j.jff.2017.02.009; 16. Zanoni C. Aiello G. Arnoldi A. Lammi C. Investigations on the hypocholesterolaemic activity of LILPKHSDAD and LTFPGSAED, two peptides from lupin beta-conglutin: Focus on LDLR and PCSK9 pathways J || [18]; doi:10.1111/jfbc.12524; 18. Lammi C. Zanoni C. Arnoldi A. Aiello G. YDFYPSSTKDQQS (P3), a peptide from lupin protein, absorbed by Caco-2 cells, modulates cholesterol metabolism in HepG2 cells via SREBP-1 activation J. Food B ||| ref [19],[20],[21] = [19]; doi:10.1016/j.jff.2015.02.021; 19. Lammi C. Zanoni C. Arnoldi A. IAVPGEVA, IAVPTGVA, and LPYP, three peptides from soy glycinin, modulate cholesterol metabolism in HepG2 cells through the activation of the LDLR-SREBP2 pathway J. Fu || [20]; PMID 26310992; doi:10.1021/acs.jafc.5b03497; 20. Lammi C. Zanoni C. Vistoli G. Arnoldi A. Two Peptides from Soy β-Conglycinin Induce a Hypocholesterolemic Effect in HepG2 Cells by a Statin-Like Mechanism: Comparative in Vitro and in Silico Model || [21]; PMID 26580610; doi:10.3390/ijms161126029; 21. Lammi C. Zanoni C. Arnoldi A. Three Peptides from Soy Glycinin Modulate Glucose Metabolism in Human Hepatic HepG2 Cells Int. J. Mol. Sci. 2015 16 27362 27370 10.3390/ijms161126029 26580610 PMC4661 ||| ref [6] = [6]; PMID 25690031; doi:10.3390/ijms16024150; 6. Soares R.A. Mendonça S. De Castro L. Menezes A.C. Arêas J.A. Ívini Major Peptides from Amaranth (Amaranthus cruentus) Protein Inhibit HMG-CoA Reductase Activity Int. J. Mol. Sci. 2015 16 4150 4160 ||| ref [4],[16] = [4]; PMID 24972343; doi:10.1021/jf500795b; 4. Lammi C. Zanoni C. Scigliuolo G.M. D’Amato A. Arnoldi A. Lupin Peptides Lower Low-Density Lipoprotein (LDL) Cholesterol through an Up-regulation of the LDL Receptor/Sterol Regulatory Element Bindin || [16]; doi:10.1016/j.jff.2017.02.009; 16. Zanoni C. Aiello G. Arnoldi A. Lammi C. Investigations on the hypocholesterolaemic activity of LILPKHSDAD and LTFPGSAED, two peptides from lupin beta-conglutin: Focus on LDLR and PCSK9 pathways J; conditions: cited from earlier work
T1 construct: purchased Sigma (Sigma-Aldrich, St. Louis, MO, USA)
T1 sequence (P04035 426-888 limits assumed): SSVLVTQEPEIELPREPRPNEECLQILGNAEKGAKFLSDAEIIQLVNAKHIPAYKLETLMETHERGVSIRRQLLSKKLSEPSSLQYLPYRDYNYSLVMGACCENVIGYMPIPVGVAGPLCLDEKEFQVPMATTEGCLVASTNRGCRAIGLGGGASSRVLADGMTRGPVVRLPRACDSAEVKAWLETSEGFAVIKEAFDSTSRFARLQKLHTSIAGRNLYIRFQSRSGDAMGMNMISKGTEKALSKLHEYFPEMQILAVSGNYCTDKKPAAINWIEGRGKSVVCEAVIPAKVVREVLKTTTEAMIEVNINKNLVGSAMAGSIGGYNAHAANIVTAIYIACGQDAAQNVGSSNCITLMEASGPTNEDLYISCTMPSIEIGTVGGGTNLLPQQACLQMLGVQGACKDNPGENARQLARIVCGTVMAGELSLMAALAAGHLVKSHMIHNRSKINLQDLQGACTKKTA

LDLR in HepG2 cells = conditions: ref [16]; cited from earlier work
From the text: In this panorama, lupin protein hydrolysates, obtained by treating the proteins with pepsin and trypsin, show synergistic hypocholesterolemic effects through the modulation of both HMGCoAR and PCSK9 targets. […] Furthermore, these lupin hydrolysates impair the protein–protein interaction (PPI) betwe ... || Taking into account all this information, it is possible to affirm that there is an interesting similarity between the hypocholesterolemic behaviors of T9 and P5.

[1] = tested on: LDL uptake by HepG2 cells; conditions: cited from earlier work
From the text: (§1) In this panorama, lupin protein hydrolysates, obtained by treating the proteins with pepsin and trypsin, show synergistic hypocholesterolemic effects through the modulation of both HMGCoAR and PCSK9 targets. […] In parallel, we have also predicted by in silico experiments that T9 had the potential capability of inhibiting the HMGCoAR activity.

[2] = tested on: PCSK9-LDLR protein–protein interaction; conditions: ref [15]; cited from earlier work
From the text: as §1

HMGCoAR protein levels = conditions: reference not given; presumably ref [16]; cited from earlier work
From the text: (§2) Taking into account all this information, it is possible to affirm that there is an interesting similarity between the hypocholesterolemic behaviors of T9 and P5.

[3] = tested on: SREBP-2 transcription factor; conditions: ref [16]; cited from earlier work
From the text: as §2

HNF-1α = conditions: ref [16]; cited from earlier work
From the text: as §2

[4] = soybean glycinin peptides, ref [19],[20],[21], read-out: IC50, HMGCoAR activity
[5] = lupin β-conglutin peptides (pepsin), in vitro, ref [16],[18], read-out: IC50, HMGCoAR activity

COc1ccc2cc3[n+](cc2c1OC)CCc1cc2c(cc1-3)OCO2 [berberine]
PCSK9 pathway (in words) (PCSK9; ref [14]): modulate the PCSK9 pathway

IAVPGEVA [soybean peptide from glycinin hydrolysis]
IC50 (HMGCoAR; [4]): 222 µM

IAVPTGVA [soybean peptide from glycinin hydrolysis]
IC50 (HMGCoAR; [4]): 247 µM

LILPKHSDAD [P5, absorbable peptide deriving from hydrolysis of lupin β-conglutin with pepsin]
PCSK9-WT protein level (in words) (PCSK9; ref [16]): decrease of PCSK9-WT protein level | selectivity, PCSK9-WT pathway modulation (in words) (PCSK9; ref [16]): selective toward the PCSK9-WT pathway modulation | LDLR protein levels (in words) (LDLR in HepG2 cells): increase of the LDLR protein levels | ability of HepG2 cells to clear / absorb extracellular LDL (in words) ([1]; HepG2 cells, ref [15]): increased ability of HepG2 cells to clear extracellular LDL | capacity of HepG2 cells to clear LDL (in words) ([1]; ref [16]): enhanced capacity of HepG2 cells to clear LDL from the extracellular space | effect on PPI between PCSK9 and LDLR (in words) [2]: able to affect the PPI between PCSK9 and the LDLR | IC50 (HMGCoAR; [5]): 147 µM | HMGCoAR protein levels (in words) (HMGCoAR protein levels): does not diminish the HMGCoAR protein levels | SREBP-2 transcription factor activation (in words) [3]: augmentation of the SREBP-2 transcription factor activation | HNF-1α level (in words) (HNF-1α): decrease of HNF-1α

LPYP [soybean peptide from glycinin hydrolysis]
IC50 (HMGCoAR; [4]): 300 µM

LTFPGSAED [P7, absorbable peptide deriving from hydrolysis of lupin β-conglutin with pepsin]
IC50 (HMGCoAR; [5]): 68.4 µM

VGVL
IC50 (HMGCoAR; amaranth peptide, ref [6], read-out: concentration inhibiting HMGCoAR by 50%): 51.9 µM | HMGCoAR inhibition (in words) (HMGCoAR; amaranth protein hydrolysis peptides, ref [6]): direct inhibition of the reductase activity

YDFYPSSTKDQQS [P3, absorbable peptide deriving from hydrolysis of lupin β-conglutin with pepsin]
IC50 (HMGCoAR; [5]): 70 µM

YVVNPDNNEN [soybean peptide from β-conglycinin]
IC50 (HMGCoAR; soybean β-conglycinin peptides, ref [19],[20],[21], read-out: IC50, HMGCoAR activity): 200 µM
